This note sets out measurements from paper PMC11504387, “Synthesis and Biological Activity Assessment of 2-Styrylbenzothiazoles as Potential Multifunctional Therapeutic Agents” (Antioxidants, 2024).

The test system of assay [1] is skin HaCat keratinocytes. Description: Cell growth inhibition assay, HaCat. Format: cell-based, human. The following applies: 24 h incubation; mean ± SD. The method, then: Cell growth inhibition analyses were performed on human melanoma Colo38 cells and skin HaCat keratinocytes. Human melanoma Colo38 cells were kindly given by Dr. Patrizio Giacomini (Laboratory of Immunology, Regina Elena Institute, Rome, Italy). HaCat cells were obtained from Istituto Zooprofilattico Sperimentale della Lombardia e dell’Emilia-Romagna, Brescia, Italy. Cells were seeded at 40,000 cells/mL and 25,000 cells/mL, respectively. Colo38 cells were maintained in RPMI 1640, supplemented with 10% foetal bovine serum (FBS), penicillin (100 Units/mL), and streptomycin (100 µg/mL). HaCat cells were maintained in DMEM, supplemented with 10% fatal bovine serum (FBS), penicillin (100 Units/mL), streptomycin (100 µg/mL) and glutamine (2 mM); the incubation was performed at 37 °C in a 5% CO2 atmosphere. Compounds were dissolved in DMSO to obtain 50 mM stock solutions and diluted before cell treatment in MeOH. The tested compounds were added at serial dilutions to the cell cultures (from 0.1 to 100 µM) and incubated for 24 h further. Cells were then harvested, suspended in physiological solution, and counted with a Z2 Coulter Counter (Coulter Electronics, Hialeah, FL, USA). The number of cells/mL and the IC50 values were determined when untreated cells were in the log phase of cell growth. Samples of vehicles and untreated cells were included in each plate. Cisplatin was used as positive control for the HaCat cells, while N1-(4-arylidene)-1H-(2-OH-4-N(Et)2-phenyl)-[d]imidazole-2-carbohydrazide was used as positive control for the Colo38 cell line.

A short description of assay [2]: DPPH radical scavenging activity. Format: biochemical. As to conditions: values in brackets; mean ± SD. The procedure: For all the compounds, 0.750 mL of a DMSO-MeOH solution mixed with 1.5 mL of DPPH solution (0.004%) in MeOH was analysed. The samples were kept in the dark at room temperature for 30 min and then analysed with a spectrophotometer by reading the absorbance at 517 nm (lambda max of the absorption spectrum of the DPPH radical). Equation (5) was used to obtain the percentage inhibition (%) of the radical: DPPH radical-scavenging capacity (%) = [1 − (A1 − A2)/A0] × 100%(5) where A2 is the blank (MeOH), and A1 and A0 are, respectively, the recorded absorbances of the sample and control (0.750 MeOH and 1.5 mL DPPH solution), directly proportional to the concentration of residual DPPH. An initial screening was performed by testing all compounds at a concentration of 1 mg/mL (Trolox® was used as the standard); subsequently, compounds showing >90% radical inhibition were further tested to calculate their IC50 value (expressed in µg/mL). Ferulic acid was used as positive control. A linear regression was performed to calculate the sample concentration able to eliminate 50% of DPPH free radicals.
A general note: The DPPH test is a chemical assay of radical scavenging.

Assay [3] is described as follows: Ferric reducing antioxidant power (FRAP) test. The class given is biochemical. The following applies: Trolox equivalents; mean ± SD. The method, then:
The FRAP test, based on a colorimetric reaction, can assess the ability of a sample to reduce ferric ions to ferrous ions when complexed with 2,4,6-trispiridyl-s-triazine (TPTZ). The FRAP solution consisted of 0.1 M acetate buffer (pH 3.6), 10 mmol/L of TPTZ in 40 mM HCl and a 20 mM solution of FeCl3, in a 10:1:1 ratio. A 1.9 mL volume of the FRAP solution was incubated with 0.1 mL of the sample solution at 37 °C for 10 min. The absorbance was then read with a UV-Vis spectrophotometer at a wavelength of 593 nm, which corresponds to the maximum absorbance peak of the Fe^2+-TPTZ complex. Trolox® was used as a standard, and ferulic acid was used as positive control, and the results are expressed as µmol TE/g.

Assay [4] can be described thus: ORAC assay. As to conditions: Trolox equivalents; mean ± SD. The class given is biochemical. The procedure:
The ORAC assay was performed based on the previously modified Hong procedure. The sodium salt of fluorescein (85 nM) was used as a target for free radical attack with 2,2′-azobis(2-amidinopropane) dichloride (AAPH) as a peroxyl radical generator in the final assay mixture (total volume of 0.2 mL). The test involves a calibration curve of Trolox (standard control) with different concentrations (40 to 240 μM). The compounds tested were first dissolved in DMSO:MeOH and then diluted in phosphate buffer solution pH 7.4. Fluorescence measurements were performed at 37 °C and recorded at 5-min intervals up to 30 min after the addition of AAPH. ORAC values were calculated as the difference in areas under the fluorescein quenching curves between the blank and the sample and were expressed as µmol Trolox equivalents (TE) per gram of dried sample.

The subject of assay [5] is primary human monocytes. Description: Lipid mediator (LM) formation in primary human monocytes. Format: cell-based. The following applies: diclofenac 1 µM; A23187 2.5 µM, 30 min. An excerpt:
Monocytes and polymorphonuclear leukocytes (PMNL) were freshly isolated from human blood. Human blood and leukocyte concentrates were provided by the Institute for Transfusion Medicine of the University Hospital Jena (Thuringia, Germany). The protocols for experiments with human blood and blood cells were approved by the ethical commission of the Friedrich Schiller University of Jena. Following blood density centrifugation and separation of cell populations, peripheral blood mononuclear cells (PBMC) were left to adhere for 1 h to cell culture flasks (monocyte-enriched PBMC). Non-adherent cells were washed off from the adherent monocytes, before pre-incubating monocytes (5 × 10^6 cells/mL) with the test compounds for 10 min at 37 °C. LM formation was elicited with A23187 (2.5 µM) and CaCl2 (1 mM) over 30 min. The reaction was stopped with 1 mL of ice-cold methanol containing 10 µL of deuterium-labelled internal LM standards (200 nM d8-5S-HETE, d4-LTB4, d5-LXA4, d5-RvD2, d4-PGE2 and 10 µM d8-AA). LMs were extracted using Sep-Pak C18 35 cc Vac Cartridges (Waters, Milford, MA, USA) and analysed by UPLC-MS/MS as described by Pein et al..
The ability to modulate LM formation was screened in primary human monocytes expressing the enzymes required for PGE2, LTB4, and 12-HETE production (Figure 2A). Cells were pre-treated with the test compounds BZTst1–6 (10 µM) or the reference COX inhibitor diclofenac (1 µM) for 10 min prior to stimulation with the calcium ionophore A23187 (2.5 µM) for 30 min.

Molecules are shown by their SMILES.

In general, IC50 refers to the concentration needed to halve the response being measured.

`N.N.[Cl][Pt][Cl]` [Cisplatin, reference compound]: the IC50 in assay [1] was 2000 ± 400 nM.
Turning to `COc1cc(/C=C/C(=O)O)ccc1O` [Ferulic Acid, reference compound], the “DPPH IC50 (sample concentration able to scavenge 50% of the DPPH radical)” value in assay [2] is given as “(9.90 ± 0.70) µg/mL”. Moreover, in assay [3], the FRAP turned out to be 6872.60 ± 10.70 µmolTE/g. In addition, the ORAC in assay [4] is listed as 15,906.40 ± 14.20 µmolTE/g.
On to `O=C(O)Cc1ccccc1Nc1c(Cl)cccc1Cl` [diclofenac, reference compound], for which the PGE2 formation result in assay [5] is listed as “significantly downregulated”.
